How the values were obtained:
[1] = test system: OCT2; design: method as in earlier work; conditions: drug 20 μM; HEK 293 cells overexpressing OCT2; ref 7 (Kido et al.); cited from earlier work
[2] = target: T1, OCT2 (Homo sapiens, UniProt O15244); assay: Inhibition of OCT2-mediated [14C]metformin uptake in HEK-OCT2 cells; conditions: for % Inhibition of OCT2-dependent MF uptake at 200 µM (mean ± SEM) / IC50 / % Inhibition of OCT2-dependent MF uptake at 20 µM (mean ± SEM): human, pH 7.3; for IC50 values, OCT2-mediated metformin transport (in words): potent inhibitors, confirmed previous findings [19]-[21]
T1 sequence (O15244 whole entry): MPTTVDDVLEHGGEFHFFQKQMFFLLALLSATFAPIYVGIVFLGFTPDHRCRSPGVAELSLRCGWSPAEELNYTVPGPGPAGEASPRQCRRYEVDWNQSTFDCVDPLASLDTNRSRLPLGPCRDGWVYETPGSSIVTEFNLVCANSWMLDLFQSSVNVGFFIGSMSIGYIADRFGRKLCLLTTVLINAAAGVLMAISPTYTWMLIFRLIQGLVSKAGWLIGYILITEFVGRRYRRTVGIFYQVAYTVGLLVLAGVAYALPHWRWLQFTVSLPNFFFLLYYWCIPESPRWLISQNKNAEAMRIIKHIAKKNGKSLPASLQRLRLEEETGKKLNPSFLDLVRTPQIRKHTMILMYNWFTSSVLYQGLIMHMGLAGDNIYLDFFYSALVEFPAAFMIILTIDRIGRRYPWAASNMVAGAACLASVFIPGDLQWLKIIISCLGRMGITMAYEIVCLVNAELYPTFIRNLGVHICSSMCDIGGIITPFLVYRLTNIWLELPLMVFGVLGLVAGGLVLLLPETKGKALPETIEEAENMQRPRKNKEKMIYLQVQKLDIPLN

[3] = target: T1, OCT2; assay: Inhibition of OCT2-mediated [3H]MPP+ uptake in HEK-OCT2 cells; conditions: for % Inhibition of OCT2-dependent MPP+ uptake at 20 µM (mean ± SEM): test drug 20 µM
[4] = ref 16 (Regenthal et al.), cited from earlier work; for Cmax,u: Cmax of unbound drug in humans; for Cmax: maximum steady-state plasma concentration in humans
[5] = test system: OCT2; conditions: cited from earlier work
[6] = cited from earlier work
[7] = target: T1, OCT2; assay: Time-dependent substrate uptake into HEK-OCT2 and vector control cells; format: cell-based; design: expressed in transfected cells; host or cells: HEK 293 cells, stably transfected (HEK-OCT2); vector control HEK-VC; conditions: metformin 1000 μM; for Time until OCT2-mediated uptake reached steady-state: HEK-OCT2 cells
Procedure: For the transport assays HEK cell lines stably transfected with human OCT2 (HEK-OCT2) or the vector only (HEK-VC) were used. The HEK-OCT2 cell line was established and characterized previously. HEK-OCT2 and HEK-VC cells were seeded in poly-D-lysine (Sigma Aldrich, Taufkirchen, Germany) coated 48-well-plates at a density of 1.2 x 10^5 cells/well. […] In a total incubation volume of 125 μL the final concentrations of the test drugs were 20 or 200 μM. […] Uptake was stopped by washing the cells three times with ice-cold uptake buffer. Afterwards, cells were lysed with 5 mM Tris buffer (pH 7.3) containing 0.1% Triton X-100. The intracellular accumulation of radioactivity was determined by liquid scintillation counting (PerkinElmer, Rodgau-Jügesheim, Germany) and protein concentration of each lysate was measured with bicinchonic acid assay (BCA Protein Assay Kit, Thermo Fisher Scientific, Waltham, MA, USA). We performed two to eight experiments each on at least two separate days, i.e., n = 4–16. […] The percentage of uptake inhibition was calculated as: Inhibition (%) = 100 –(V / V 0 * 100), where V and V 0 are the net uptake rates with and without test drug.
Data are presented as the mean ± standard error (4–8 experiments each on two to four separate days, i.e., n = 8–29).

[8] = MPP+ 50 μM, 3 min, net uptake HEK-OCT2 minus HEK-VC
[9] = test drug 200 µM, MPP+ 50 μM, 3 min, net uptake HEK-OCT2 minus HEK-VC
[10] = coadministration of lansoprazole
[11] = coadministration with pantoprazole

SMILES | Inhibition of OCT2-mediated ASP+ uptake [1] | % Inhibition of OCT2-dependent MF uptake at 200 µM (mean ± SEM) [2] | IC50 [2] [nM] | IC50 values, OCT2-mediated metformin transport (in words) [2] | % Inhibition of OCT2-dependent MPP+ uptake at 20 µM (mean ± SEM) [3, 8] [%] | % Inhibition of OCT2-dependent MPP+ uptake at 200 µM (mean ± SEM) [3, 9] [%] | Cmax,u [4] [nM] | Cmax [4] [nM] | other results
CN(C)CCC=C1c2ccccc2CCc2ccccc21 [Amitriptyline] | more than 50% | 101.7 ± 2.2% | 510 | low micromolar range | 58.4 ± 2.8 | 97.8 ± 0.6 | 40 | 1100 | Cmax,u / IC50 [2]: 0.08; % Inhibition of OCT2-dependent MPP+ uptake at 20 µM (mean ± SEM) ([3]; MPP+ 50 μM, 3 min, net uptake HEK-OCT2 minus HEK-VC, listed as amitriptyline): more than 50%
CN/C(=N/CCSCc1nc[nH]c1C)NC#N [Cimetidine] | – | – | – | – | – | – | – | – | Affinity for MATEs compared with OCT2 [5]: higher affinity for MATEs than for OCT2; Inhibitor of OCT2 (in words) [5]: rather weak inhibitor
CN(C)CCCN1c2ccccc2CCc2ccc(Cl)cc21 [Clomipramine] | more than 50% | 99.5 ± 3.7 | – | – | 90.3 ± 1.5 | 98.8 ± 3.0 | – | – | –
CN(C)CCC=C1c2ccccc2COc2ccccc21 [Doxepin] | more than 50% | 99.3 ± 0.7 | 250 | – | – | – | 250 | 1300 | –
Cc1c(OCC(F)(F)F)ccnc1C[S+]([O-])c1nc2ccccc2[nH]1 (centres unmarked) [Lansoprazole] | – | 103.0 ± 2.7 | 3280 | low micromolar range | 22.1 ± 5.3 | 90.1 ± 1.8 | 1200 | 6000 | % Inhibition of OCT2-dependent MF uptake at 20 µM (mean ± SEM) [2]: 87.7 ± 1.6; Decrease of metformin renal clearance [6, 10]: 13%; Increase of AUC of metformin [6, 10]: 17%; Increase of Cmax of metformin [6, 10]: 15%
C[n+]1ccc(-c2ccccc2)cc1 [MPP^+, 1-methyl-4-phenylpyridinium] | – | – | – | – | – | – | – | – | Uptake ratio OCT2 cells vs. vector control cells ([7]; MPP+ 50 μM, 3 min, no inhibitor): 3.2; Time until OCT2-mediated uptake reached steady-state ([7]; MPP+ 50 μM): approximately 15 min
CN(C)C(=N)N=C(N)N [Metformin] | – | – | – | – | – | – | – | – | Time until OCT2-mediated uptake reached steady-state ([7]; MPP+ 50 μM): approximately 15 min; Uptake of metformin in vector control cells ([7]; 3 min, HEK-VC, no inhibitor): 227 ± 22.1 pmol/mg/min; Uptake of metformin in HEK-OCT2 cells ([7]; 3 min, no inhibitor): 5946 ± 294.0 pmol/mg/min
COc1ccc2[nH]c([S+]([O-])Cc3ncc(C)c(OC)c3C)nc2c1 (centres unmarked) [Omeprazole] | more than 50% | 107.4 ± 4.3 | – | low micromolar range | 56.0 ± 4.0 | 93.0 ± 0.9 | – | – | % Inhibition of OCT2-dependent MPP+ uptake at 20 µM (mean ± SEM) ([3]; MPP+ 50 μM, 3 min, net uptake HEK-OCT2 minus HEK-VC, listed as omeprazole): more than 50%
COc1ccnc(C[S+]([O-])c2nc3ccc(OC(F)F)cc3[nH]2)c1OC (centres unmarked) [Pantoprazole] | – | 98.9 ± 0.6 | 560 | – | – | – | 230 | 11400 | % Inhibition of OCT2-dependent MPP+ uptake at 200 µM (mean ± SEM) ([3]; human, pH 7.3): 101.7 ± 4.4; AUC for metformin greater following coadministration [6, 11]: 15%; Cmax for metformin greater following coadministration [6, 11]: 15%
N[C@@H](CC(=O)N1CCn2c(nnc2C(F)(F)F)C1)Cc1cc(F)c(F)cc1F [Sitagliptin] | – | 97.5 ± 0.1 | 7410 | low micromolar range | -8.2 ± 7.8 | 22.7 ± 6.0 | 1500 | 2300 | % Inhibition of OCT2-dependent MF uptake at 20 µM (mean ± SEM) [2]: 85.9 ± 1.1; Effect on steady-state pharmacokinetics of either agent ([6]; co-administration of sitagliptin and metformin, patients with type 2 diabetes): did not meaningfully alter
CCCc1nc2c(C)cc(-c3nc4ccccc4n3C)cc2n1Cc1ccc(-c2ccccc2C(=O)O)cc1 [Telmisartan] | more than 50% | 99.2 ± 0.2 | – | – | – | – | – | – | % Inhibition of OCT2-dependent MPP+ uptake at 200 µM (mean ± SEM) ([3]; human, pH 7.3): 93.3 ± 2.8
CC(CN(C)C)CN1c2ccccc2CCc2ccccc21 (centres unmarked) [Trimipramine] | more than 50% | 100.0 ± 0.8 | 440 | – | 51.0 ± 10.2 | 98.6 ± 1.2 | 60 | 610 | % Inhibition of OCT2-dependent MPP+ uptake at 20 µM (mean ± SEM) ([3]; MPP+ 50 μM, 3 min, net uptake HEK-OCT2 minus HEK-VC, listed as trimipramine): more than 50%
O=C(O[C@H]1C[C@H]2CC[C@@H](C1)[N+]21CCCC1)C(O)(c1ccccc1)c1ccccc1 [Trospium chloride] | – | 98.8 ± 0.4 | 70 | – | 83.2 ± 2.2 | 96.7 ± 0.7 | 10 | 30 | Effect on metformin renal clearance and steady-state pharmacokinetics ([6]; trospium chloride coadministration, healthy volunteers): did not alter
